Reference: PMC9145483, “Substituted Purines as High-Affinity Histamine H3 Receptor Ligands” (Pharmaceuticals, 2022)
Like-named read-outs stand apart in the source and are kept apart here.

How the values were obtained:
human histamine H3R = target: T1, human histamine H3R (Homo sapiens, UniProt Q9Y5N1); assay: Human histamine H3 radioligand displacement ([3H]Nα-methylhistamine); type: binding
T1 construct: expressed in transfected cells; host or cells: HEK-293 cells, stably expressing; membrane preparations
T1 sequence (Q9Y5N1 whole entry): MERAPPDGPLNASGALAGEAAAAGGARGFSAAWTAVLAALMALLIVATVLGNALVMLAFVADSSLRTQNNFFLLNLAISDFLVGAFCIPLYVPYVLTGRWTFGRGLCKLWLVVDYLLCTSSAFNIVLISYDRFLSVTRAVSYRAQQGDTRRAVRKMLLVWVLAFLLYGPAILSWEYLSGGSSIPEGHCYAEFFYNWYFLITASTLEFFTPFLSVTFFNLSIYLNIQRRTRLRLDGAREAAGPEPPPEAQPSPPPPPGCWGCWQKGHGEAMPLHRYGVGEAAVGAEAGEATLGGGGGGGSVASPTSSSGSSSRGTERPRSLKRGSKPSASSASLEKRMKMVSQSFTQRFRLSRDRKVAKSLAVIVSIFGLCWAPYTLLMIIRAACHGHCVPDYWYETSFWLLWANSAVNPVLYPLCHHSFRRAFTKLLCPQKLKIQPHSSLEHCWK

[1] = MTT cytotoxicity assay, HepG2; type: cell-based; details: human, HepG2 hepatoma cells, 0.1 to 100 μM
Method: (§1) The potential general nephrotoxic, neurotoxic and hepatotoxic effects of selected H3R ligands 3d and 3h were investigated to determine their influence on the viability of normal HEK-293, neuroblastoma SH-SY5Y and hepatoma HepG2 cell lines by a colorimetric MTT reduction assay (Table 2).
(§2) Cultures of HEPG2 (ATCC-HB-8065 TM), HEK293 (ATCC CRL-1573 TM) and SHSY-5Y (ATCC CRL-2266 TM) cell lines were used as experimental models. Cells were maintained in a DMEM culture medium supplemented with 10% Foetal Bovine Serum (FBS), in an incubator at 37 °C and a humidified atmosphere with 5% CO2. Cells were seeded on culture plates, were allowed to grow for 24 h and then were treated with the synthesized compounds for 48 h with 100, 10, 1 and 0.1 µM concentrations. Negative cell death control, corresponding to untreated cells, and positive cell death control, corresponding to cells treated with 10% SDS, were maintained.
(§3) In a colorimetric MTT reduction assay, sterile 96-well culture plates were used. An amount of 2000–2500 cells per well were seeded. Upon completion of treatment, the culture medium was vacuum aspirated and washed with 1x PBS, and then 100 μL of 0.5 mg/mL MTT solution was added for a period of 4 h at 37 °C for formazan crystal formation. At the end of the 4 h, 100 μL of 10% SDS in HCl was added and kept overnight in an incubator at 37 °C to dissolve the formed crystals. The absorbance of each well was measured on the Synergy HTX microplate reader at 570 nm wavelength.

hepatoma HepG2 cell line = assay: MTT cytotoxicity assay, HepG2; type: cell-based; details: 48 h, 0.1 to 100 μM
Method: as §1, §2, §3

[2] = MTT cytotoxicity assay, HEK-293; type: cell-based; details: human, HEK-293 cells, HEK-293, MTT, 0.1 to 100 μM
Method: as §1, §2
as §3, with “At the end of the 4 h, 100 μL of 10% SDS in HCl was added and kept overnight in an incubator at 37 °C to dissolve the formed crystals.” left out

HEK-293 cell line = assay: MTT cytotoxicity assay, HEK-293; type: cell-based; details: HEK-293, MTT, 48 h, 0.1 to 100 μM
Method: as §1, §2
as §3, with “At the end of the 4 h, 100 μL of 10% SDS in HCl was added and kept overnight in an incubator at 37 °C to dissolve the formed crystals.” left out

[3] = tested on: neuroblastoma SH-SY5Y cell line; assay: MTT cytotoxicity assay, SH-SY5Y; type: cell-based; details: 48 h, 0.1 to 100 μM
Method: as §1, §2
as §3, with “At the end of the 4 h, 100 μL of 10% SDS in HCl was added and kept overnight in an incubator at 37 °C to dissolve the formed crystals.” left out

[4] = MTT cytotoxicity assay, SH-SY5Y; type: cell-based; details: human, SH-SY5Y neuroblastoma cells, 0.1 to 100 μM
Method: as §1, §2
as §3, with “At the end of the 4 h, 100 μL of 10% SDS in HCl was added and kept overnight in an incubator at 37 °C to dissolve the formed crystals.” left out

H3R = target: H3R; design: method as in PMID 30025902, PMID 31176569; details: H3R affinity of previous ligands; cited from earlier work
[5] = [3H]Nα-methylhistamine 2 nM, HEK-293 membranes stably expressing human H3R, mean [95% CI], at least three experiments in duplicate, read-out: Ki (nM) [95% CI nM]
[6] = restated in Table 3, read-out: Biological Activity Ki

SMILES | Ki (human histamine H3R; [5]) [nM] | Ki (human histamine H3R; [6]) [nM] | also measured
Fc1ccc(Cn2cnc3c(N4CCC(N5CCCCC5)CC4)nc(Cl)nc32)cc1 [Compound 3e, 6-([1,4’-Bipiperidin]-1’-yl)-2-chloro-9-(4-fluorobenzyl)-9H-purine] | 94.6 | – | –
Clc1ccc(Cn2cnc3c(N4CCC(N5CCCCC5)CC4)nc(Cl)nc32)cc1 [Compound 3f, 6-([1,4’-Bipiperidin]-1’-yl)-2-chloro-9-(4-chlorobenzyl)-9H-purine] | 44.6 | 44.6 | –
N#Cc1ccc(Cn2cnc3c(N4CCC(N5CCCCC5)CC4)nc(Cl)nc32)cc1 [Compound 3g, 4-((6-([1,4’-Bipiperidin]-1’-yl)-2-chloro-9H-purin-9-yl)methyl)benzonitrile] | 77.8 | 77.8 | –
Clc1nc(N2CCC(N3CCCCC3)CC2)c2ccn(Cc3c(Cl)cccc3Cl)c2n1 [III] | – | – | Ki (H3R): 6 nM
Clc1nc(N2CCC(N3CCCCC3)CC2)c2ccn(Cc3ccc4ccccc4c3)c2n1 [II] | – | – | Ki (H3R): 126 nM
CNCCc1cnc[nH]1 [[^3H]N^α-methylhistamine, reference compound] | – | – | Kd (human histamine H3R; radioligand used at 2 nM at human H3R): 3.08 nM

The next lines start with results.

Ki (human histamine H3R; [5]) [nM] | Ki (human histamine H3R; [6]) [nM] | SMILES | also measured
105 | 105 | Fc1ccc(Cn2cnc3c(N4CCC(N5CCCCC5)CC4)ncnc32)cc1 [Compound 3a, 6-([1,4’-Bipiperidin]-1’-yl)-9-(4-fluorobenzyl)-9H-purine] | –
39.4 | 39.4 | Clc1ccc(Cn2cnc3c(N4CCC(N5CCCCC5)CC4)ncnc32)cc1 [Compound 3b, 6-([1,4’-Bipiperidin]-1’-yl)-9-(4-chlorobenzyl)-9H-purine] | –
28.8 | 28.8 | N#Cc1ccc(Cn2cnc3c(N4CCC(N5CCCCC5)CC4)ncnc32)cc1 [Compound 3c, 4-((6-([1,4’-Bipiperidin]-1’-yl)-9H-purin-9-yl)methyl)benzonitrile] | –
2.91 | – | Clc1cccc(Cl)c1Cn1cnc2c(N3CCC(N4CCCCC4)CC3)ncnc21 [Compound 3d, 6-([1,4’-Bipiperidin]-1’-yl)-9-(2,6-dichlorobenzyl)-9H-purine] | IC50 at 48 h [1]: > 30 µM; IC50 (hepatoma HepG2 cell line): 57.6 ± 12 µM; Ki (human histamine H3R; Table 3, read-out: Biological Activity −logKi (converted)): 2.88 nM
5.51 | 5.5 | Clc1nc(N2CCC(N3CCCCC3)CC2)c2ncn(Cc3c(Cl)cccc3Cl)c2n1 [Compound 3h, 6-([1,4’-Bipiperidin]-1’-yl)-2-chloro-9-(2,6-dichlorobenzyl)-9H-purine] | IC50 at 48 h [2]: > 30 µM; IC50 (HEK-293 cell line): 54.3 ± 3.54 µM; IC50 at 48 h [1]: > 30 µM; IC50 (hepatoma HepG2 cell line): 33.8 ± 4.29 µM; IC50 [3]: 32.4 ± 4.75 µM; IC50 at 48 h [4]: > 30 µM
